Data: publication PMC10350917 (Journal of Medicinal Chemistry, 2023)
“And” between values parts separate entries of the source, which are not always exact repeats. Identical values can stand only once. Like-named read-outs stand apart in the source and are kept apart here.

Assays:
ADC-30 [1] = biological target: T1, ADC-30 (Acinetobacter baumannii, UniProt A7XM81); assay: Inhibition kinetics (competition with nitrocefin), ADC-30; format: biochemical; conditions: 100 μM nitrocefin, 3 min pre-incubation
Experimental: (§1) For inhibition kinetics, utilizing nitrocefin (NCF) as a colorimetric substrate, the inhibition constant (Ki) of MB076 and S02030 BATSI with ADCs was determined using competition kinetics as previously described.[10],[25],[28],[34] The measurements of the initial velocities were performed with the addition of 100 μM NCF after a 3 min pre-incubation of the enzyme (2 nM) with increasing concentration of the inhibitor. […] The Ki value was corrected for the NCF affinity (KM values for each ADC variant listed in Table 1) with the Cheng–Prusoff[35] equation: [drawing 2]

ADC-162 [2] = biological target: T2, ADC-162 (Acinetobacter baumannii, UniProt A0A2H4PPJ8); assay: Inhibition kinetics (competition with nitrocefin), ADC-162; format: biochemical
Experimental: as §1

ADC-33 [3] = biological target: T3, ADC-33 (Acinetobacter baumannii, UniProt A7Y407); assay: Inhibition kinetics (competition with nitrocefin), ADC-33; format: biochemical; conditions: 100 μM nitrocefin, 3 min pre-incubation
Experimental: as §1

ADC variants = assay: Inhibition kinetics, statement for all ADC variants; format: biochemical, Acinetobacter baumannii; conditions: bound stated for all ADC variants of the study
Experimental: as §1

in vitro = conditions: human, plasma, pH 7.4
Experimental: (§2) The in vitro stability of MB076 and S02030 was evaluated by incubating the compounds in both buffer (pH 7.4) and human plasma at 37 °C over 48 h. Half-lives (t1/2) were then calculated for each compound.
(§3) Plasma and buffer stability samples were analyzed by monitoring the disappearance of the compounds using high-performance liquid chromatography-mass spectrometry (LC–MS) techniques.
Half-lives (t1/2) were calculated in Origin using a one-phase decay model with t1/2 = ln(2)/b, where b is the slope of a linear plot of natural logarithm (ln) of the remaining compound concentration (C) versus incubation time. Each condition was tested in triplicate.

physchem = conditions: buffer, pH 7.4
Experimental: as §2, §3
Standard solutions were prepared by adding the compound in DMSO (2.5 μM) to 0.1 M phosphate buffer pH 7.4 and MeOH. Solutions were vortexed, filtered, and analyzed by LC–MS (At=0). Samples were then prepared by adding a solution of the compound in DMSO (2.5 μM) to phosphate buffer pH 7.4 and incubating at 37 °C. At suitable time intervals, the reaction was stopped by the addition of MeOH. The solutions were vortexed and filtered. Degradation time courses were followed by LC–MS enabling the quantitation of compounds. Half-lives (t1/2) were calculated in Origin using a one-phase decay model with t1/2 = ln(2)/b, where b is the slope of a linear plot of natural logarithm (ln) of the remaining compound concentration (C) versus incubation time. Each condition was tested in triplicate.

ADC-7 [4] = biological target: T4, ADC-7 (Acinetobacter baumannii, UniProt Q6DRA1); conditions: ref [10]; cited from earlier work
KPC-2 = conditions: ref [14],[25]; cited from earlier work
SHV-1 = conditions: ref [14],[25]; cited from earlier work
[5] = system: ADC-7 in pBCSK(−) E. coli DH10B; assay: Broth microdilution AST, ADC-7; format: cell-based; conditions: Escherichia coli, E. coli DH10B ADC-7, MB076 fixed at 10 mg/L in combinations, FDC in iron-depleted broth
Experimental: (§4) Susceptibility testing to standard antibiotics was performed by broth microdilution or agar dilution using an Oxoid replicator according to 2021 Clinical and Laboratory Standards Institute (CLSI) guidelines. MICs for CAZ, CTX, FEP, and TOL were determined using cation-adjusted Mueller Hinton MH broth, and MICs for FDC were done in iron-depleted cation-adjusted MH broth according to CLSI methods. MB076, S02030, and VAB were used at a fixed concentration of 10 mg/L. All MICs were interpreted according to the 2021 CLSI guidelines.[43]
(§5) blaADC-7 pBCSK- was cloned and expressed in E. coli DH10B cells as previously described.[44] All other blaADC variants were synthesized by GenScript according to the blaADC-7 pBCSK- strategy, cloning into the XbaI/BamHI sites of the pBCSK- vector.

[6] = system: ADC-30 in pBCSK(−) E. coli DH10B; assay: Broth microdilution AST, ADC-30; format: cell-based; conditions: Escherichia coli, E. coli DH10B ADC-30, MB076 fixed at 10 mg/L in combinations, FDC in iron-depleted broth
Experimental: as §4, §5

[7] = system: ADC-33 in pBCSK(−) E. coli DH10B; assay: Broth microdilution AST, ADC-33; format: cell-based; conditions: Escherichia coli, E. coli DH10B ADC-33, MB076 fixed at 10 mg/L in combinations, FDC in iron-depleted broth
Experimental: as §4, §5

[8] = system: ADC-212 in pBCSK(−) E. coli DH10B; assay: Broth microdilution AST, ADC-212; format: cell-based; conditions: Escherichia coli, E. coli DH10B ADC-212, MB076 fixed at 10 mg/L in combinations, FDC in iron-depleted broth
Experimental: as §4, §5

[9] = system: ADC-219 in pBCSK(−) E. coli DH10B; assay: Broth microdilution AST, ADC-219; format: cell-based; conditions: Escherichia coli, E. coli DH10B ADC-219, MB076 fixed at 10 mg/L in combinations, FDC in iron-depleted broth
Experimental: as §4, §5

ADC-33 [10] = biological target: T3, ADC-33
Experimental: (§6) Steady-state kinetic parameters were determined by combining pure enzyme with antibiotic substrates in 50 mM NaH2PO4, pH 7.4 at room temperature. Changes in absorbance were measured on a Cary 60 UV–Vis spectrophotometer (Agilent Technologies) and converted to velocity using the change in extinction coefficient specific to nitrocefin (ε482 = 17,400 M^–1·cm^–1), cephalothin (ε262 = 7660 M^–1·cm^–1), ceftazidime (ε260 = 8660 M^–1·cm^–1), cefotaxime (ε260 = 7500 M^–1·cm^–1), cefepime (ε260 = 750 M^–1·cm^–1), cefiderocol (ε259 = 9430 M^–1·cm^–1), and ceftolozane (ε254 = 6810 M^–1·cm^–1). Initial velocities were fit to the Michaelis–Menten equation yielding kcat and KM values. For ADC/substrate combinations in which the KM was too large to accurately determine both kcat and KM values, the initial velocities at kcat/KM values were calculated from linear fits of vo in low [S] ranges (<0.08 × KM).

ADC-162 [11] = biological target: T2, ADC-162; conditions: substrate
Experimental: as §6

ADC-30 [12] = biological target: T1, ADC-30
Experimental: as §6

ADC-7 [13] = biological target: T4, ADC-7
Experimental: as §6

ADC-212 = ADC-212 (Acinetobacter baumannii, UniProt A8QIF8, A224D/INS243L/P244A); format: biochemical; conditions: substrate
Experimental: as §6

ADC-219 = ADC-219 (Acinetobacter baumannii, UniProt A7Y407, G248D); format: biochemical; conditions: substrate
Experimental: as §6

O=C(Cc1cccs1)N[C@@H](Cn1cc(C(=O)O)nn1)B(O)O [S02030]
Ki (ADC-30 [1]): 28 ± 2 nM
Ki (ADC-162 [2]): 160 ± 10 nM
Ki (ADC-33 [3]): 110 ± 4 nM
Ki (ADC variants): < 1000 nM
half-life at 2.5 μM (in vitro): 9 h
half-life (physchem): 8 h
Ki (ADC-7 [4]): 44.5 nM and 44 nM and 45 nM
IC50 (KPC-2): 80 nM
IC50 (SHV-1): 130 nM

CO/N=C(\C(=O)N[C@@H]1C(=O)N2C(C(=O)[O-])=C(C[N+]3(C)CCCC3)CS[C@H]12)c1csc(N)n1 [cefepime]
MIC [5]: 0.25 µg/mL
MIC [6]: 0.25 µg/mL
MIC [7]: 0.5 µg/mL
MIC [8]: 0.5 µg/mL
MIC [9]: 0.12 µg/mL

CC(C)(O/N=C(\C(=O)N[C@@H]1C(=O)N2C(C(=O)[O-])=C(C[N+]3(CCNC(=O)c4ccc(O)c(O)c4Cl)CCCC3)CS[C@H]12)c1csc(N)n1)C(=O)O [cefiderocol]
kcat (ADC-33 [10]; ADC-33, substrate): 0.60 s^–1
MIC [5]: 0.5 µg/mL
MIC [6]: 0.5 µg/mL
MIC [7]: 2 µg/mL
MIC [8]: 1 µg/mL
MIC [9]: 1 µg/mL

CO/N=C(\C(=O)N[C@@H]1C(=O)N2C(C(=O)O)=C(COC(C)=O)CS[C@H]12)c1csc(N)n1 [cefotaxime]
kcat (ADC-162 [11]): 25.4 s^–1
Km (ADC-162 [11]; 50 mM NaH2PO4 pH 7.4, room temperature): 115 µM
kcat (ADC-30 [12]): 0.12 s^–1
Km (ADC-30 [12]; ADC-30, substrate, 50 mM NaH2PO4 pH 7.4, room temperature): 4.35 ± 1.81 µM
kcat (ADC-33 [10]): 0.46 s^–1
Km (ADC-33 [10]; ADC-33, substrate, 50 mM NaH2PO4 pH 7.4, room temperature): 7.11 ± 1.05 µM
kcat (ADC-7 [13]): 0.048 s^–1
Km (ADC-7 [13]; ADC-7, substrate, 50 mM NaH2PO4 pH 7.4, room temperature): 1.23 ± 0.17 µM
kcat (ADC-212): 12.0 s^–1
kcat (ADC-219): 44.2 s^–1
MIC [5]: 64 µg/mL
MIC [6]: 64 µg/mL
MIC [7]: 128 µg/mL
MIC [8]: 128 µg/mL
MIC [9]: 16 µg/mL
